Assay results taken from patent US8652846B2, “Medium derived from stem cells as a pharmaceutical composition” (Omnicyte Limited, priority 2008, dated 2014).

Experiments:
Rat liver cells [1] = assay: Viability of liver cells exposed to thioacetamide (mitochondrial dehydrogenase activity), OmniCytes without cell contact; format: cell-based; details: rat liver cells exposed to TAA only
Description: (§1) Rat liver cells were exposed to the hepatotoxin thioacetamide (TAA), which induces liver damage such as cirrhosis and fibrosis. The control was only exposed to TAA, whereas the experimental group was also exposed to OmniCytes without cell contact. Cell viability (expressed as mitochondrial dehydrogenase activity) was assessed.

Rat liver cells [2] = assay: Bilirubin levels of liver cells exposed to thioacetamide, OmniCytes without cell contact; format: cell-based; details: liver cells exposed to TAA only
Description: as §1
Liver function was also assayed by measuring bilirubin levels. Aberrantly high levels of bilirubin are typically indicative of a liver disorder or malfunction.

[3] = test system: A549 lung cancer cell line; assay: Apoptosis of A549 cells co-cultured with OmniCytes (direct cell contact), FACS Annexin V/7-AAD; format: cell-based, human; details: A549, control group: staurosporine alone, plate without membrane
Description: (§2) Human non-small-cell lung cancer line A549 was obtained from American Type Culture Collection (catalogue number CCL-185, Rockville, Md., USA) and grown in Ham's F 12-K medium supplemented with 10% fetal bovine serum and 1% penicillin/streptomycin in a 37° C. humidified incubator with 5% CO2.
(§3) 3×10^5 cancer cells were plated into the bottom of 24 mm Transwell 6 well plates with or without […] pore polycarbonate membrane insert (Corning Life Sciences, USA) with 2 mL of the appropriate cell culture medium. […]
(§4) To determine effect of OmniCytes on apoptosis, 3×10^5 OmniCytes were added 24 hours after the onset of apoptosis induction either to the top of the Transwell insert with 1 ml α-MEM (Gibco, UK) supplemented with 30% FBS (Gibco, UK) and 10% GM-MIX (for no contact conditions) or directly into the same well as the cells (for contact conditions). […] After 24 or 48 hours the inserts were removed and the cancer cells analysed for apoptosis and Bcl-2, Bcl-xL and Bax expression.
(§5) Apoptosis was analysed using the method of staining with fluorescein isothiocyanate (FITC)-Annexin V and 7-AAD-FITC previously described by Ikewaki et al. (2007). […] FITC-Annexin V staining was measured in FL1-H and FITC-7-AAD staining in FL3-H. […]

[4] = test system: A549 lung cancer cell line; assay: Apoptosis of A549 cells with OmniCytes in Transwell assay (no cell contact), FACS Annexin V/7-AAD; format: cell-based, human; details: A549, control group: staurosporine alone, Transwell with membrane
Description: as §2, §3, §4, §5

[5] = test system: A549 lung cancer cell line; assay: Apoptosis of A549 cells with OmniCytes in Transwell assay (no cell contact), DAPI nuclear staining, immuno-fluorescent microscopy; format: cell-based, human; details: A549, control group: staurosporine alone
Description: 3×10^5 cancer cells were plated into the bottom of 24 mm Transwell 6 well plates with or without […] pore polycarbonate membrane insert (Corning Life Sciences, USA) with 2 mL of the appropriate cell culture medium. Transwell plates with a polycarbonate membrane insert allow the exchange of soluble factors but prevent cell-cell contact, whereas Transwell plates without the membrane allow cell to cell contact. After 24 hours apoptosis was induced in cancer cells according to the designated protocol. Cells were incubated at 37° C. in 5% CO2/95% air. […]
as §4
10^5 cells were fixed using 4% paraformaldehyde (PFA) for 15 minutes at room temperature and washed 3 times with PBS (Gibco, UK). […] Cells were visualised on a Zeiss fluorescent microscope and analysed using the Metamorph programme. […]
For each sample, a minimum of 5 random fields were assessed and at least 250 cells were counted. […]

A549 lung cancer cells = assay: TNF-alpha blocking antibody study: A549 cells with staurosporine and OmniCytes without direct cell contact; format: cell-based, human; details: A549, control: staurosporine, OmniCyte-free
Description: The effect of TNF-alpha blocking antibodies was tested. A549 lung cancer cells were exposed to staurosporine and OmniCytes were added without direct cell contact. The control was OmniCyte-free. TNF-alpha blocking antibodies (Abeam™, Cambridge, UK) at two different concentrations (5 or 10 μg/mL) were added.

Row | Compound | cell viability (mitochondrial dehydrogenase activity) (Rat liver cells [1]) | bilirubin levels (Rat liver cells [2]) | mean of apoptosis (Annexin V positive cells) [3] | apoptosis (Annexin V positive cells) [4] | apoptosis by nuclear staining (DAPI) [5] | apoptosis (A549 lung cancer cells)
1 | CC(=N)S [TAA, thioacetamide] | significantly decreased cell viability | caused bilirubin levels to rise | – | – | – | –
2 | CN[C@@H]1C[C@H]2O[C@@](C)([C@@H]1OC)n1c3ccccc3c3c4c(c5c6ccccc6n2c5c31)C(=O)NC4 [staurosporine] | – | – | 22.77%±4.87 | 26.85%±2.15 | 18.32%±1.81 | 22.13%±0.74
